From article PMC10250256, “A radiohybrid theranostics ligand labeled with fluorine-18 and lutetium-177 for fibroblast activation protein-targeted imaging and radionuclide therapy” (European Journal of Nuclear Medicine and Molecular Imaging, 2023)
Values joined by “and” are separate entries in the source; they are usually repeats but may differ in a detail not shown here. Equal entries are not always repeated. “Also recorded” adds a separate entry of the source. Where two headings read alike, the source gives them in different places.

Experiments:
FAP = molecular target: T1, FAP (Homo sapiens, UniProt Q12884); experiment: competitive FAP binding assay against [^177Lu]Lu-FAPI-04 in HT-1080-FAP cells
T1 construct: expressed in transfected cells; host or cells: HT-1080 human fibrosarcoma cells (HT-1080-FAP)
T1 sequence (Q12884 1-760): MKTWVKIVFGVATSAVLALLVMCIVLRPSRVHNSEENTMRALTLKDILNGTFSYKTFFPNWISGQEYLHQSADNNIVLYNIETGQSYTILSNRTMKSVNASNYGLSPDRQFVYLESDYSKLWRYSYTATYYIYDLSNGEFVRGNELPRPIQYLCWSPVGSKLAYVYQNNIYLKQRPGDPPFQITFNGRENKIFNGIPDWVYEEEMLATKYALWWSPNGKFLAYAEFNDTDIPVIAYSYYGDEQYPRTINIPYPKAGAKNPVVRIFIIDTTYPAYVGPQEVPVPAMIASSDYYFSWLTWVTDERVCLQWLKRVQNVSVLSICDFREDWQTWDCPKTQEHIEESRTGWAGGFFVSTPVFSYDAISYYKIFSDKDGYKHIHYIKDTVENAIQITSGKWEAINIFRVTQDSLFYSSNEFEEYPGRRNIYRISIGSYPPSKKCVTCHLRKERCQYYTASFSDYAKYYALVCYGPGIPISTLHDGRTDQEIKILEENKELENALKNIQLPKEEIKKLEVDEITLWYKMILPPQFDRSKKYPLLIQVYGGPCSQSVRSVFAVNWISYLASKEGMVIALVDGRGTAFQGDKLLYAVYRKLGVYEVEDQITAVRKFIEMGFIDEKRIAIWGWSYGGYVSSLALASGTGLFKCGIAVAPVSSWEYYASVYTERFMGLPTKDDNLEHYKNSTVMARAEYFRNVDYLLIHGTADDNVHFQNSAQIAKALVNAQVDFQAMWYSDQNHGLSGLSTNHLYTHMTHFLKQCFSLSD

HT-1080-FAP tumor slide = molecular target: T2, HT-1080-FAP tumor slide (Homo sapiens, UniProt Q12884); experiment: in vitro autoradiography of HT-1080-FAP tumor slides; settings: unlabeled 20 at 130 μM
T2 construct: from tissue; host or cells: slides of HT-1080-FAP xenograft tumor (transfected human fibrosarcoma cells grown subcutaneously in BALB/C-nu/nu mice)
T2 sequence (Q12884 1-760): T1 sequence (Q12884 1-760)
Description: The slides of HT-1080-FAP tumor were incubated with [^18F]21 for 1 h, exposed on a phosphoscreen, and subsequently scanned on a Beckman Coulter FLA7000IP Typhoon storage phosphorimager. Immunohistochemical staining of FAP was performed on the adjacent section.

[1] = in vitro stability in PBS or murine serum (radio-HPLC); format: in vitro ADME
Description: (§1) [^18F]21 or [^177Lu]21 (50 μCi, 10 μL) was added to PBS (90 μL) or murine serum (90 μL) and the mixture was incubated at 37 °C for a certain time ([^18F]21: 2 h, [^177Lu]21: 8 d). The PBS mixture was injected directly into the radio-HPLC for analysis. The murine serum was precipitated with 0.1 mL of acetonitrile and centrifuged (10,000 rpm, 5 min). The supernatant was measured and analyzed by the radio-HPLC to determine the stability. For in vivo stability study, the radio tracers were injected into the tail vein of ICR mice and samples of blood were collected after a certain time post injection (pi) ([^18F]21: 4 h, [^177Lu]21: 9 h). The plasma proteins were precipitated using an equal volume of acetonitrile and centrifuged (10,000 rpm, 5 min). The RCP of radio tracer in supernatants were analyzed and quantified by radio-HPLC. The radio-HPLC method was as follows: A: 0.1% TFA in H2O, B: ACN, 0–10 min, 0–100% B. The flow rate was 1 mL/min, and the C18 column (4.6 × 150 mm, 5 μm, ZORBAX, Agilent) was used. When using HPLC to assess the stability of [^177Lu]21, the effluent was collected every 30 s due to its less radioactivity, and samples were measured by an automatic γ-counter (2480 Wizard2, Perkin Elmer). The counted samples were plotted as intensity (cpm) against fraction.

HT-1080-FAP xenograft = experiment: micro-PET/CT imaging, HT-1080-FAP xenograft; format: in vivo, BALB/C-nu/nu mice
Description: (§2) All animal experiments were conducted in compliance with a protocol approved by the First Affiliated Hospital of Sun Yat-sen University Institutional Animal Care and Use Committee. BALB/C-nu/nu mice (4–5-week old with body weight of 16–22 g) were purchased from GemPharmatech Co., Ltd. Mice were housed under standard conditions with temperature and light control (12-h-light/12-h-dark cycle) and had free access to water and food. For the tumor model, HT-1080-FAP or HT-1080 cells (5 × 10^6) were subcutaneously injected into the right or left flank of nude mice, respectively. As the tumor diameter reached 3–4 mm, mice were treated with radioligands. Micro-PET and SPECT imaging studies, as well as biodistribution, were conducted when the tumor diameter reached 5–10 mm.
(§3) The dynamic micro-PET/CT (Siemens Inveon) imaging studies were conducted to evaluate the pharmacokinetics. The HT-1080-FAP and HT-1080 tumor-bearing mice were injected with 3.7–7.4 MBq of [^18F]21 or [^68 Ga]Ga-FAPI-04 via tail vein. […] Dynamic PET scans were performed from 0 to 120 min with image reconstruction of every 5 min. Micro-PET imaging was reconstructed using a three-dimensional ordered-subset expectation maximum (OSEM) algorithm (Siemens, Erlangen, Germany). The images and regions of interest (ROIs) were produced using Inveon Research Workplace (Siemens, Erlangen, Germany).

HT-1080 cells = experiment: cell uptake in HT-1080 (FAP negative) cells; format: cell-based, human
Description: (§4) The human fibrosarcoma cell lines HT-1080 and HT-1080-FAP transferred with human FAP gene were both cultured in Dulbecco modified Eagle medium supplemented with 10% fetal bovine serum (Gibco, USA) at 37℃/5% carbon dioxide. For cell uptake experiments, HT-1080-FAP cells (~ 1 × 10^5/well) or HT-1080 (~ 1 × 10^5/well) were seeded in 24-well plates for 24–48 h and incubated at 37℃ with radiolabeled compounds (74 kBq/well) in 0.5 mL of serum-free medium for indicated times. Non-specific binding was determined by co-incubating with 100 μM FAP inhibitor UAMC1110. For competitive FAP binding assays, HT-1080-FAP cells were incubated with [^177Lu]Lu-FAPI-04 (74 kBq/well) in the presence of different concentrations (10^−3–10^4 nM) of competing non-radioactive ligands. For internalization experiments, the radiotracer-incubated cells were washed twice with PBS (pH 7.4), followed by glycine–HCl (0,05 M, pH = 2.8) solution to distinguish between cell surface–bound (acid-releasable) and internalized (acid-resistant) radioligand. For efflux experiments, cells were preincubated with [^177Lu]21 or [^177Lu]Lu-FAPI-04 for 1 h and subsequently incubated at 37 °C in a medium free of radiotracer and serum for different time periods. […] Cell lysates were collected and the radioactivity was determined using a γ-counter.

HT-1080-FAP cells [2] = experiment: internalization experiments in HT-1080-FAP cells; format: cell-based, human; settings: 10 min
Description: as §4

[3] = in vivo stability in ICR mice, blood samples (radio-HPLC)
Description: as §1

HT-1080 xenograft = experiment: micro-PET/CT imaging, FAP-negative HT-1080 xenograft; format: in vivo, BALB/C-nu/nu mice; settings: dynamic PET 0-120 min
Description: as §2, §3

HT-1080-FAP cells [4] = experiment: cell uptake in HT-1080-FAP cells; format: cell-based, human
Description: The human fibrosarcoma cell lines HT-1080 and HT-1080-FAP transferred with human FAP gene were both cultured in Dulbecco modified Eagle medium supplemented with 10% fetal bovine serum (Gibco, USA) at 37℃/5% carbon dioxide. For cell uptake experiments, HT-1080-FAP cells (~ 1 × 10^5/well) or HT-1080 (~ 1 × 10^5/well) were seeded in 24-well plates for 24–48 h and incubated at 37℃ with radiolabeled compounds (74 kBq/well) in 0.5 mL of serum-free medium for indicated times. Non-specific binding was determined by co-incubating with 100 μM FAP inhibitor UAMC1110. For competitive FAP binding assays, HT-1080-FAP cells were incubated with [^177Lu]Lu-FAPI-04 (74 kBq/well) in the presence of different concentrations (10^−3–10^4 nM) of competing non-radioactive ligands. For internalization experiments, the radiotracer-incubated cells were washed twice with PBS (pH 7.4), followed by glycine–HCl (0,05 M, pH = 2.8) solution to distinguish between cell surface–bound (acid-releasable) and internalized (acid-resistant) radioligand. For efflux experiments, cells were preincubated with [^177Lu]21 or [^177Lu]Lu-FAPI-04 for 1 h and subsequently incubated at 37 °C in a medium free of radiotracer and serum for different time periods. The medium was removed and the cells were washed twice with cold PBS (pH 7.4) and subsequently lysed with 0.5 mL of NaOH (1 M). Cell lysates were collected and the radioactivity was determined using a γ-counter.

[5] = 60 min pi, FAPI-04 25 μg/animal co-injected

CC(C)(C)[Si](F)(c1ccc(C(=O)NC[C@H](NC(=O)CCC(C(=O)O)N2CCN(CC(=O)O)CCN(CC(=O)O)CCN(CC(=O)O)CC2)C(=O)NC[C@H]2CC[C@H](C(=O)NCCCOc3ccc4nccc(C(=O)NCC(=O)N5CC(F)(F)C[C@H]5C#N)c4c3)CC2)cc1)C(C)(C)C (stereo partly drawn) [Compound 20]
IC50 (FAP): 2.29 ± 1.12 nM
blocking of [^18F]21 autoradiography signal (HT-1080-FAP tumor slide): could be blocked by unlabeled 20

CC(C)(C)[Si](F)(c1ccc(C(=O)NCC(NC(=O)CCC(C(=O)O)N2CCN(CC(=O)[O-])CCN(CC(=O)[O-])CCN(CC(=O)[O-])CC2)C(=O)NCC2CCC(C(=O)NCCCOc3ccc4nccc(C(=O)NCC(=O)N5CC(F)(F)CC5C#N)c4c3)CC2)cc1)C(C)(C)C.[Lu+3] (stereo not drawn) [Compound 21]
IC50 (FAP; HT-1080-FAP cells, competition with [^177Lu]Lu-FAPI-04, read-out: IC50 (binding affinity towards FAP)): 2.53 ± 1.87 nM

CC(C)(C)[Si]([18F])(c1ccc(C(=O)NCC(NC(=O)CCC(C(=O)O)N2CCN(CC(=O)[O-])CCN(CC(=O)[O-])CCN(CC(=O)[O-])CC2)C(=O)NCC2CCC(C(=O)NCCCOc3ccc4nccc(C(=O)NCC(=O)N5CC(F)(F)CC5C#N)c4c3)CC2)cc1)C(C)(C)C.[Lu+3] (stereo not drawn) [[^18F]21]
time stable in vitro ([1]; 37 °C, PBS or murine serum): at least 2 h
in vitro stability ([1]; as summarised in discussion): > 90%
tumor uptake (PET ROI), without competitor (HT-1080-FAP xenograft; 60 min pi): 14.13 ± 3.19 %ID/g
tumor uptake (PET ROI), blocking with FAPI-04 (HT-1080-FAP xenograft; [5]): 3.8 ± 0.89 %ID/g
uptake in joints, blocking with FAPI-04 (HT-1080-FAP xenograft; [5]): blocked significantly
fold higher tumor uptake than [^68 Ga]Ga-FAPI-04 (HT-1080-FAP xenograft; 2 h pi): 14.9 fold
HT-1080-FAP tumor uptake (PET) (HT-1080-FAP xenograft; 2 h pi, dynamic PET): 10.04 %ID/g
cell uptake in FAP negative cells (HT-1080 cells): Almost no uptakes
internalization rate (HT-1080-FAP cells [2]): > 80%
metabolization in blood samples (radio-HPLC) ([3]; ICR mice, within 4 h pi): little evidence of any metabolization
in vivo stability ([3]; as summarised in discussion): > 90%
FAP-negative HT-1080 tumor uptake (PET) (HT-1080 xenograft): did not show any uptakes
cell uptake (HT-1080-FAP cells [4]; 10 min incubation): 60.18% ± 3.84
cell uptake (HT-1080-FAP cells [4]; 1 h incubation): 86.43% ± 5.47 and 86.43% ± 5.46
cell uptake with competitor (HT-1080-FAP cells [4]; co-incubation with 100 μM FAP inhibitor UAMC1110): could be blocked by FAP inhibitor; also recorded: could be blocked by UAMC1110
